The test deals with thrombin (Homo sapiens, UniProt P00734). In words: anti-thrombin activity; clotting assay (coagulation time with fibrinogen as substrate). The format is biochemical. Set-up: 100 μl of human-thrombin prepared at 10 NIH units/ml in aforesaid buffer. Particulars: for IC50: concentration corresponding to 50 thrombin units, human-thrombin 10 NIH units/ml, human-fibrinogen 6 mg/ml, read-out: 50% Inhibition Concentration (converted); for Potency: calculated using the definition that HV-1 (54-65) potency is 1. The method, then:
Measurement of anti-thrombin activity was done by looking at anti-coagulant activity as an index using fibrinogen as the substrate. That is, the compounds were dossolved in 200 μl of 0.1 mM Tris-HCl buffer (pH7.5) containing 0.1% polyethyleneglycol-6000, 100 μl of human-thrombin prepared at 10 NIH units/ml in aforesaid buffer, were added 200 μl of human-fibrinogen (Sigma) prepared at 6 mg/ml in aforesaid tris-hydrochloride buffer were added, and the coagulation time of the reaction mixtures were measured. For measuring of coagulation times, coagulation time analyzer (Amelung KC10A) was used. Obtained values were converted into units by using a previously prepared thrombin standard curve. Graphs were prepared by plotting the converted values on the vertical axis, and the concentrations of the compounds on the horizontal axis. In the graphs, the thrombin unit was defined as 100 at a compound concentration of 0. The concentration of compounds corresponding to 50 units were defined as 50% inhibitory concentrations of compounds.

SMILES strings stand for the structures. *1 amine or outer side, *2 acyl side, *3 side chain or, on linkers, in order; H or OH if unused. Where a SMILES comes first, the peptide text is derived from it. [ ]: non-standard residue; d: D form. The star is where a group is joined. sY = N[C@@H](Cc1ccc(OS(=O)(=O)O)cc1)C(=O)O; X2 = CC(C)C[C@H](N*)C(=O)NP(=O)(O)O; Asu = N[C@@H](CCCCCC(=O)O)C(=O)O; dAsu = N[C@H](CCCCCC(=O)O)C(=O)O; NH(3-hydroxypropyl) = OCCCN*; Suc = O=C(CCC(=O)[*:2])[*:1]; Leu(ol) = CC(C)C[C@H](N)CO; X1 = NS(=O)(=O)CCN*; Ava = NCCCCC(=O)O; βAla = NCCC(=O)O

Data on 19 compounds can be found in patent publication US5880258A (dated 1999).

On to `CC[C@H](C)[C@H](NC(=O)[C@H](CCC(=O)O)NC(=O)[C@H](CCC(=O)O)NC(=O)[C@H](Cc1ccccc1)NC(=O)[C@H](CC(=O)O)NC(=O)CN)C(=O)N1CCC[C@H]1C(=O)N[C@@H](Cc1ccc(O)cc1)C(=O)N[C@@H](Cc1ccc(OS(=O)(=O)O)cc1)C(=O)N[C@@H](Cc1ccc(OS(=O)(=O)O)cc1)C(=O)N[C@@H](CC(C)C)C(=O)N[C@@H](CCC(N)=O)C(=O)O` (single isomer, unassigned) [Sulfated form of (B) peak 1, Gly--Asp--Phe--Glu--Glu--Ile--Pro--Tyr--Tyr(SO3 H)--Tyr(SO3 H)--Leu--Gln], for which the IC50 is 0.291 µM.
The same measure, in the same setting: the figure for `CC[C@H](C)[C@H](NC(=O)[C@H](CCC(=O)O)NC(=O)[C@H](CCC(=O)O)NC(=O)[C@H](Cc1ccccc1)NC(=O)[C@H](CC(=O)O)NC(=O)CN)C(=O)N1CCC[C@H]1C(=O)N[C@@H](Cc1ccc(O)cc1)C(=O)N[C@@H](Cc1ccc(OS(=O)(=O)O)cc1)C(=O)N[C@@H](Cc1ccc(O)cc1)C(=O)N[C@@H](CC(C)C)C(=O)N[C@@H](CCC(N)=O)C(=O)O` (single isomer, unassigned) [Sulfated form of (B) peak 2, Gly--Asp--Phe--Glu--Glu--Ile--Pro--Tyr--Tyr(SO3 H)--Tyr--Leu--Gln] is 0.63 µM; for `CC[C@H](C)[C@H](NC(=O)[C@H](CCC(=O)O)NC(=O)[C@H](CCC(=O)O)NC(=O)[C@H](Cc1ccccc1)NC(=O)[C@H](CC(=O)O)NC(=O)CN)C(=O)N1CCC[C@H]1C(=O)N[C@@H](Cc1ccc(O)cc1)C(=O)N[C@@H](Cc1ccc(O)cc1)C(=O)N[C@@H](Cc1ccc(OS(=O)(=O)O)cc1)C(=O)N[C@@H](CC(C)C)C(=O)N[C@@H](CCC(N)=O)C(=O)O` (single isomer, unassigned) [Sulfated form of (B) peak 3, Gly--Asp--Phe--Glu--Glu--Ile--Pro--Tyr--Tyr--Tyr(SO3 H)--Leu--Gln] it is 2.49 µM.
Consider `CC[C@H](C)[C@H](NC(=O)[C@@H]1CCCN1C(=O)[C@H](CCC(=O)O)NC(=O)[C@H](Cc1ccccc1)NC(=O)[C@H](CC(=O)O)NC(=O)CNC(=O)CCC(=O)O)C(=O)N1CCC[C@H]1C(=O)N[C@@H](CCC(=O)O)C(=O)N[C@@H](Cc1ccc(O)cc1)C(=O)N[C@@H](Cc1ccc(O)cc1)C(=O)N[C@@H](CC(C)C)C(=O)N[C@@H](CCC(N)=O)C(=O)O` [(C)] (Suc-GDFEPIPEYYLQ-OH), for which the Potency is given as 1.76 and the IC50 was 2.39 µM.
The matching figures for `CC[C@H](C)[C@H](NC(=O)[C@@H]1CCCN1C(=O)[C@H](CCC(=O)O)NC(=O)[C@H](Cc1ccccc1)NC(=O)CCC(=O)O)C(=O)N1CCC[C@H]1C(=O)N[C@@H](CCC(=O)O)C(=O)N[C@@H](Cc1ccc(O)cc1)C(=O)N[C@@H](Cc1ccc(O)cc1)C(=O)O` [(I)] (Suc-FEPIPEYY-OH): 0.83 and 17.3 µM.
On the same counts, the results for `CC[C@H](C)[C@H](NC(=O)[C@@H]1CCCN1C(=O)[C@H](CCC(=O)O)NC(=O)[C@H](Cc1ccccc1)NC(=O)CCC(=O)O)C(=O)N1CCC[C@H]1C(=O)N[C@@H](CCC(=O)O)C(=O)N[C@@H](Cc1ccc(O)cc1)C(=O)N[C@@H](Cc1ccc(O)cc1)C(N)=O` [(J)] (Suc-FEPIPEYY-NH2) are 0.07 and 85.1 µM.
As for `CC[C@H](C)[C@H](NC(=O)[C@@H]1CCCN1C(=O)[C@H](CCC(=O)O)NC(=O)[C@H](Cc1ccccc1)NC(=O)CCC(=O)O)C(=O)N1CCC[C@H]1C(=O)N[C@@H](CCC(=O)O)C(=O)N[C@@H](Cc1ccc(O)cc1)C(=O)N[C@@H](Cc1ccc(O)cc1)C(=O)NCCC(=O)O` [(K)] (Suc-FEPIPEYY[βAla]-OH), the IC50 is 24.6 µM.
Same read-out and setting: the figure for `CC[C@H](C)[C@H](NC(=O)[C@@H]1CCCN1C(=O)[C@H](CCC(=O)O)NC(=O)[C@H](Cc1ccccc1)NC(=O)CCC(=O)O)C(=O)N1CCC[C@H]1C(=O)N[C@@H](CCC(=O)O)C(=O)N[C@@H](Cc1ccc(O)cc1)C(=O)N[C@@H](Cc1ccc(O)cc1)C(=O)NCCCCC(=O)O` [(L)] (Suc-FEPIPEYY[Ava]-OH) is 12.4 µM; for `CC[C@H](C)[C@H](NC(=O)[C@@H]1CCCN1C(=O)[C@H](CCC(=O)O)NC(=O)[C@H](Cc1ccccc1)NC(=O)CCC(=O)O)C(=O)N1CCC[C@H]1C(=O)N[C@@H](CCC(=O)O)C(=O)N[C@@H](Cc1ccc(O)cc1)C(=O)N[C@@H](Cc1ccc(O)cc1)C(=O)NCCCO` [(N)] (Suc-FEPIPEYY-{NH(3-hydroxypropyl)}) it is 84.9 µM; for `CC[C@H](C)[C@H](NC(=O)[C@@H]1CCCN1C(=O)[C@H](CCC(=O)O)NC(=O)[C@H](Cc1ccccc1)NC(=O)CCC(=O)O)C(=O)N1CCC[C@H]1C(=O)N[C@@H](CCC(=O)O)C(=O)N[C@@H](Cc1ccc(O)cc1)C(=O)N[C@@H](Cc1ccc(O)cc1)C(=O)N[C@@H](CCCCCC(=O)OC)C(=O)OC` [(O)] (Suc-FEPIPEYY[Asu](OMe)-OMe) it is 26 µM.
Same read-out and setting: the figure for `CC[C@H](C)[C@H](NC(=O)[C@@H]1CCCN1C(=O)[C@H](CCC(=O)O)NC(=O)[C@H](Cc1ccccc1)NC(=O)CCC(=O)O)C(=O)N1CCC[C@H]1C(=O)N[C@@H](CCC(=O)O)C(=O)N[C@@H](Cc1ccc(O)cc1)C(=O)N[C@@H](Cc1ccc(O)cc1)C(=O)N[C@H](CO)CC(C)C` [(P)] (Suc-FEPIPEYY[Leu(ol)]) is 82.7 µM.
Take `CCNC(=O)[C@H](CC(C)C)NC(=O)[C@H](Cc1ccc(O)cc1)NC(=O)[C@H](Cc1ccc(O)cc1)NC(=O)[C@H](CCC(=O)O)NC(=O)[C@@H]1CCCN1C(=O)[C@@H](NC(=O)[C@@H]1CCCN1C(=O)[C@H](CCC(=O)O)NC(=O)[C@H](Cc1ccccc1)NC(=O)CCC(=O)O)[C@@H](C)CC` [(R)] (Suc-FEPIPEYYL-NHEt): the Potency is given as 0.18 and the IC50 is 27.8 µM.
In the case of `CC[C@H](C)[C@H](NC(=O)[C@@H]1CCCN1C(=O)[C@H](CCC(=O)O)NC(=O)[C@H](Cc1ccccc1)NC(=O)CCC(=O)O)C(=O)N1CCC[C@H]1C(=O)N[C@@H](CCC(=O)O)C(=O)N[C@@H](Cc1ccc(O)cc1)C(=O)N[C@@H](Cc1ccc(O)cc1)C(=O)N[C@@H](CC(C)C)C(=O)NCCS(N)(=O)=O` [(S)] (Suc-FEPIPEYYL-X1), the IC50 is 72.4 µM.
Same read-out and setting: the figure for `CC[C@H](C)[C@H](NC(=O)[C@@H]1CCCN1C(=O)[C@H](CCC(=O)O)NC(=O)[C@H](Cc1ccccc1)NC(=O)CCC(=O)O)C(=O)N1CCC[C@H]1C(=O)N[C@@H](CCC(=O)O)C(=O)N[C@@H](Cc1ccc(O)cc1)C(=O)N[C@@H](Cc1ccc(O)cc1)C(=O)N[C@@H](CC(C)C)C(=O)N[C@H](CCCCCC(=O)OC)C(=O)OC` [(U)] (Suc-FEPIPEYYL[dAsu](OMe)-OMe) is 32.3 µM.
The same measure, in the same setting: the figure for `CC[C@H](C)[C@H](NC(=O)[C@@H]1CCCN1C(=O)[C@H](CCC(=O)O)NC(=O)[C@H](Cc1ccccc1)NC(=O)CCC(=O)O)C(=O)N1CCC[C@H]1C(=O)N[C@@H](CCC(=O)O)C(=O)N[C@@H](Cc1ccc(O)cc1)C(=O)N[C@@H](Cc1ccc(O)cc1)C(=O)N[C@@H](CC(C)C)C(=O)N[C@@H](CCCCCC(=O)OC)C(=O)OC` [(V)] (Suc-FEPIPEYYL[Asu](OMe)-OMe) is 20.7 µM; for `CC[C@H](C)[C@H](NC(=O)[C@@H]1CCCN1C(=O)[C@H](CCC(=O)O)NC(=O)[C@H](Cc1ccccc1)NC(=O)CCC(=O)O)C(=O)N1CCC[C@H]1C(=O)N[C@@H](CCC(=O)O)C(=O)N[C@@H](Cc1ccc(O)cc1)C(=O)N[C@@H](Cc1ccc(O)cc1)C(=O)N[C@@H](CC(C)C)C(=O)N[C@H](CCCCCC(N)=O)C(N)=O` [(W)] (Suc-FEPIPEYYL[dAsu](NH2)-NH2) it is 24.3 µM; for `CC[C@H](C)[C@H](NC(=O)[C@@H]1CCCN1C(=O)[C@H](CCC(=O)O)NC(=O)[C@H](Cc1ccccc1)NC(=O)CCC(=O)O)C(=O)N1CCC[C@H]1C(=O)N[C@@H](CCC(=O)O)C(=O)N[C@@H](Cc1ccc(O)cc1)C(=O)N[C@@H](Cc1ccc(O)cc1)C(=O)N[C@@H](CC(C)C)C(=O)NP(=O)(O)O` [(Y)] (Suc-FEPIPEYY-X2) it is 114 µM.
On the same count and under the same terms, the figure for `CC[C@H](C)[C@H](NC(=O)[C@H](CCC(=O)O)NC(=O)[C@H](CCC(=O)O)NC(=O)[C@H](Cc1ccccc1)NC(=O)[C@H](CC(=O)O)NC(=O)CN)C(=O)N1CCC[C@H]1C(=O)N[C@@H](CCC(=O)O)C(=O)N[C@@H](Cc1ccc(O)cc1)C(=O)N[C@@H](Cc1ccc(OS(=O)(=O)O)cc1)C(=O)N[C@@H](CC(C)C)C(=O)N[C@@H](CCC(N)=O)C(=O)O` [Sulfated form of (A), Gly--Asp--Phe--Glu--Glu--Ile--Pro--Glu--Tyr--Tyr(SO3 H)--Leu--Gln] (H-GDFEEIPEY[sY]LQ-OH) is 2.15 µM.
`CC[C@H](C)[C@H](NC(=O)[C@@H]1CCCN1C(=O)[C@H](CCC(=O)O)NC(=O)[C@H](Cc1ccccc1)NC(=O)[C@H](CC(=O)O)NC(=O)CNC(=O)CCC(=O)O)C(=O)N1CCC[C@H]1C(=O)N[C@@H](CCC(=O)O)C(=O)N[C@@H](Cc1ccc(OS(=O)(=O)O)cc1)C(=O)N[C@@H](Cc1ccc(OS(=O)(=O)O)cc1)C(=O)N[C@@H](CC(C)C)C(=O)N[C@@H](CCC(N)=O)C(N)=O` [Sulfated form of (D), Suc--Gly--Asp--Phe--Glu--Pro--Ile--Pro--Glu--Tyr(SO3 H)--Tyr(SO3 H)--Leu--Gln--NH2] (Suc-GDFEPIPE[sY][sY]LQ-NH2): the Potency is 57.07 and the IC50 is 0.0669 µM.
